Data as given in patent US11096926B2, “(3AR)-1,3A,8-trimethyl-1,2,3,3A,8,8A-hexahydropyrrolo[2,3-b]indol-5-yl phenylcarbamate and methods of treating or preventing neurodegeneration” (priority 2011, dated 2021).
Where two headings read alike, the source gives them in different places.

Experiments:
alpha-Syn = conditions: dopaminergic SH-SY5Y cells; quantitative Western blotting, standardized for β-actin; read-out: efficacy on alpha-Syn expression (IC50); cited from earlier work
[1] = Binding to brain proteins, human brain homogenate; format: in vitro ADME
Experimental: (§1) The binding of Compound (t) and metabolites to brain proteins was determined to be ˜96% (rat and human brain homogenate).

Tau = Tau levels before and after 10 days treatment in MCI patients; format: in vivo, human; conditions: given for 10 days
Experimental: FIG. 24 is a graph illustrating the comparison of Tau before and after treatment with Compound (1) in healthy volunteers.
(§2) For a proof of mechanism study of Compound (1), patients suffering from mild cognitive impairment (MCI) were treated with Compound (1) for 10 days. The patients were dosed with 4×60 mg Compound (1) for 10 days orally, using Posiphen® powder filled into gelatin capsules. Cerebrospinal fluid (CSF) and plasma were drawn from the subjects over a 12 hour period on day 0 and day 11.

APP [2] = assay: 35S incorporation into newly synthesized APP in SH-SY-5Y cells; format: cell-based; conditions: SH-SY-5Y human neuroblastoma cells; 10 min 35S incorporation; APP mRNA and total protein synthesis not altered
Experimental: FIG. 5A: 10 min ^35S incorporation into APP, in SH-SY-5Y human neuroblastoma cells. FIG. 5B: newly synthesized total protein. FIG. 5C: newly synthesized APP. FIG. 5D: APP mRNA.

APP [3] = format: in vivo, mouse; conditions: trisomy Down Syndrome (Ts65Dn) mice; to control non-DS brain levels
NGF = assay: Brain NGF levels in Ts65Dn mice; format: in vivo, mouse
Source text: (§3) FIG. 17 is a series of graphs illustrating effects of Compound (1) in Ts65Dn mouse model of Down Syndrome.

APP [4] = format: in vivo, mouse; conditions: APP23 transgenic AD mice; 25 mg daily for 14 days; mRNA levels not lowered
Experimental: APP23 transgenic AD mice were treated with 25 mg of Compound (1) daily for 14 days.

AChE = target: T1, AChE (Mus musculus, UniProt P21836); assay: Brain AChE levels in Ts65Dn mice; format: in vivo; conditions: 50 mg/kg
T1 construct: from tissue; host or cells: brain of Ts65Dn mice
T1 sequence (P21836 32-614): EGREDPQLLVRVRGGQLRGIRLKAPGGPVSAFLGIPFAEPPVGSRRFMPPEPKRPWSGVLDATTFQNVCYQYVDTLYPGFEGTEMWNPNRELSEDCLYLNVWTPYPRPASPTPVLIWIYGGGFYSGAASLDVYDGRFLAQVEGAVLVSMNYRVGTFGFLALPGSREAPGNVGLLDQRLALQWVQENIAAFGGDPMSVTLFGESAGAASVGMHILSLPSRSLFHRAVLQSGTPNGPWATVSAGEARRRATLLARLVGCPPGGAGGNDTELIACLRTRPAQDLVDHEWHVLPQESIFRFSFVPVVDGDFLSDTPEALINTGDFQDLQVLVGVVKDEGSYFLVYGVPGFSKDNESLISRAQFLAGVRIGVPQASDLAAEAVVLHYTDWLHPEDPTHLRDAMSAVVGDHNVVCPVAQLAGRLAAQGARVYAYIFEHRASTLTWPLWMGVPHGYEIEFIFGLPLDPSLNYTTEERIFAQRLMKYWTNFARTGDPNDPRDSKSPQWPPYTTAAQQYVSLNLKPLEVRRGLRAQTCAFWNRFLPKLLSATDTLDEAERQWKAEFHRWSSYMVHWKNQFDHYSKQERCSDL
Source text: as §3

[5] = Binding to brain proteins, rat brain homogenate; format: in vitro ADME
Experimental: as §1

[6] = Human pharmacokinetics in plasma and CSF (proof of mechanism study, MCI patients); format: in vivo; conditions: for half-life: human, po
Experimental: as §2
Pharmacokinetic analysis was performed for Compound W) and selected metabolites: N^1-norposiphen, N^8-norposiphen, and N^1,N^8-norposiphen. Pharmacodynamic analysis was performed for APP protein and other AD associated biomarkers in CSF and plasma: APP, Aβ1-40, Aβ1-42, N-APP, AChEI, BChEI, Tau/p-Tau, NGF, BDNF, and inflammatory factors.
(d) in humans, plasma and CSF were analyzed 0 to 12 hours, after administration of the drug.
The levels of Compound (1) and selected metabolites in human plasma (FIG. 22A) and human CSF (FIG. 22B) were determined. […] This was corroborated by measuring half-life of Posiphen® in brains of mice.

APP, Aβ40 and Aβ42 = APP, Aβ40 and Aβ42 levels in mouse brain (Western Blot, ELISA); format: in vivo; conditions: once daily x 21 day
Experimental: FIG. 15 is a series of graphs illustrating the in vivo reduction of APP, Aβ40 and Aβ42 levels in mouse brain by Compound (1). Drug was administered once daily×21 day: APP—Western Blot, Aβ—Specific ELISA for 1-40 and 1-42 forms.

[7] = Plasma pharmacokinetics of phenserine in men and women; conditions: 15 mg dose on day 35 of study
Source text: PT: phenserine; N^8: N^8-desamine phenserine; N^1: N^1-desmethyl phenserine; N^1,N^8: N^1,N^8-desmethyl phenserine.

| Structure (SMILES) | IC50 (alpha-Syn) [µM] | binding to brain proteins [1] [%] | Tau levels (Tau) | newly synthesized APP (APP [2]) | lowering of APP levels in brain (APP [3]) [%] | NGF levels in brain (NGF) | APP levels in the brain (APP [4]) | lowering of brain AChE levels (AChE) [%] | binding to brain proteins [5] [%] | half-life ([6]; CSF, read-out: half-life in human CSF (converted)) [h] | half-life ([6]; plasma, read-out: half-life in human plasma (converted)) [h] | half-life in human plasma ([6]; oral, listed as Posiphen) [h] | APP, Aβ40 and Aβ42 levels in mouse brain (APP, Aβ40 and Aβ42) | half life (plasma) [7] |
| --- | --- | --- | --- | --- | --- | --- | --- | --- | --- | --- | --- | --- | --- | --- |
| CN1CC[C@]2(C)c3cc(OC(=O)Nc4ccccc4)ccc3N(C)C12 (stereo partly drawn) [Compound (1), (3aR)-1,3a,8-trimethyl-1,2,3,3a,8,8a-hexahydropyrrolo[2,3-b]indol-5-yl phenylcarbamate] | < 5 | ~96 | lowers their Tau levels back to the levels found in healthy volunteers | reduces newly synthesized APP | 30 | elevated | lowered APP levels | 50 | ~96 | ~12 | ~5 | 5 | reduction | – |
| CN1CC[C@@]2(C)c3cc(OC(=O)Nc4ccccc4)ccc3N(C)[C@@H]12 [phenserine] | – | – | – | – | – | – | – | – | – | – | – | – | – | less than one |
